Test results published in patent US20210196899A1, “MICRONEEDLE COATED WITH DRUG AND MANUFACTURING METHOD FOR SAME” (SR BIOTEK INC., priority 2018, published 2021).
No end group written: not given here.

Tested on: Fibroblasts (CCD-986SK)
Assay: Measurement of collagen content in cell line (Procollagen type I peptide EIA kit)
Format: cell-based
Details: FIG. 4
Method: The culture supernatant was collected and the amount of collagen was measured as described below according to the guidelines of the Ministry of Food and Drug Safety, and the results thereof are shown in FIG. 4.
100 μl of an antibody-PoD conjugate solution was placed in each well, after which the culture solution and a standard solution were added in an amount of 20 μL thereto and cultured at 37° C. for 3 hr. The culture solution was removed from the well, followed by washing four times with 400 μL of a phosphate-buffered saline (PBS). 100 μL of a color development reagent (Procollagen type I peptide EIA kit, Takara Biomedical Co.) was added thereto, followed by culture at room temperature for 15 min, addition with 100 μL of 1 N sulfuric acid, and measurement at 450 nm using an ELISA reader.

## NCCCC[C@H](NC(=O)[C@H](Cc1c[nH]cn1)NC(=O)CNC(=O)CS)C(=O)O [GHK-TA]
Concentration of 70 to 80 ppm, 24 hr
  collagen synthesis and promotion effects: superior collagen synthesis and promotion effects

## (EEMQRR)-TA: sulfhydryl-hexapeptide of Example 1-3-1-3; Chemical Formula 7 Glu-Glu-Met-Gln-Arg-Arg-X with linker X thioglycolic acid (TA) (EEMQRR-{thioglycolic acid})
Thioglycolic acid (TA) as the linker compared to cysteine (CS) as the linker
  collagen synthesis and promotion effects: superior collagen synthesis and promotion effects

## KTTKS [reference compound]
50 to 200 ppm
  collagen synthesis and promotion effects: increased in proportion to the concentration

## KTTKS-TA: sulfhydryl KTTKS of Example 1-3-1-2; Chemical Formula 5 Lys-Thr-Thr-Lys-Ser-X with linker X thioglycolic acid (TA) (KTTKS-{thioglycolic acid})
50 to 200 ppm
  collagen synthesis and promotion effects: vastly superior compared to KTTKS
